From patent US8501911B2, “Methods of reducing inflammation and mucus hypersecretion” (Biomarck Pharmaceuticals, Ltd, priority 1999, dated 2013)
Several values for one entry are separate records, joined by “and”; a condition that tells them apart may be missing. Equal entries are not always repeated. Where two headings read alike, the source gives them in different places. Residues, ends and D or L forms follow the SMILES beside them. *: point of attachment. Myristoyl = CCCCCCCCCCCCCC(=O)*

How the values were obtained:
NHBE cells [1] = assay: PMA+8-Br-cGMP-induced mucin secretion from NHBE cells (ELISA); format: cell-based, human; conditions: inhibitor 500 nM, 15 min preincubation, then PMA 100 nM+8-Br-cGMP 1 μM 15 min
Procedure: Peptide Blocking Studies—NHBE cells were preincubated with either the MANS or the RNS peptide (1-100 μM) for 15 min, and then PMA (100 nM)+8-Br-cGMP (1 μM) or UTP (100 μM) was added, and cells were incubated for an additional 15 min or 2 h. respectively. Mucin secretion was measured by ELISA and experimental results are designated as Results-I-2B-1 and Results-I-2B-2, as follows. […]
(§1) Measurement of Mucin Secretion by ELISA—Before collection of “base line” and “test” mucin samples, the accumulated mucus at the apical surface of the cells was removed by washing with phosphate-buffered saline, pH 7.2. To collect the base-line secretion, cells were incubated with medium alone, and secreted mucin in the apical medium was collected and reserved. Cells were rested for 24 h and then exposed to medium containing the selected stimulatory and/or inhibitory reagents (or appropriate controls), after which secreted mucin was collected and reserved as the test sample. Incubation times for the base line and the test were the same but varied depending on the test reagent utilized. Both base line and test secretions were analyzed by ELISA using an antibody capture method as known in the art. See, e.g., Harlow et al., Antibodies: A Laboratory Manual, pp. 570-573, Cold Spring Harbor Laboratory, Cold Spring Harbor, N.Y. (1988). The primary antibody for this assay was 17Q2 (Babco, Richmond, Calif.), a monoclonal antibody that reacts specifically with a carbohydrate epitope on human airway mucins. The ratio of test/base-line mucin, which is similar to a “secretory index”, was used to quantify mucin secretion, allowing each culture dish to serve as its own control and thus, minimizing deviation caused by variability among culture wells. Wright et al., Am. J. Physiol. 271, L854-L861 (1996). Levels of mucin secretion were reported as percentage of the medium control.
MARCKS-related Peptides—Both the myristoylated N-terminal sequence (MANS) and the random N-terminal sequence (RNS) peptides were synthesized at Genemed Synthesis, Inc. (San Francisco, Calif.), then purified by high pressure liquid chromatography (>95% pure), and confirmed by mass spectroscopy with each showing one single peak with an appropriate molecular mass. The MANS peptide consisted of sequence identical to the first 24 amino acids of MARCKS, i.e. the myristoylated N-terminal region that mediates MARCKS insertion into membranes, MA-[…] (SEQ ID NO: 1) (where MA=N-terminal myristate chain). The corresponding control peptide (RNS) contained the same amino acid composition as the MANS but arranged in random order, MA-[…] (SEQ ID NO: 26). The presence of the hydrophobic myristate moiety in these synthetic peptides enhances their permeability to the plasma membranes, enabling the peptides to be taken up readily by cells. To determine the effects of these peptides on mucin secretion, cells were preincubated with the peptides for 15 min prior to addition of secretagogues, and mucin secretion was then measured by ELISA.
Antisense Oligonucleotides—MARCKS antisense oligonucleotide and its corresponding control oligonucleotide were synthesized at Biognostik GmbH (Gottingen, Germany). NHBE cells were treated with 5 μM antisense or control oligonucleotide apically for 3 days (in the presence of 2 μg/ml lipofectin for the first 24 h). Cells were then incubated with secretagogues, and mucin secretion was measured by ELISA. Total RNA and protein were isolated from treated cells. MARCKS mRNA was assessed by Northern hybridization according to conventional procedures using human MARCKS cDNA as a probe. MARCKS protein level was determined by Western blot using purified anti-MARCKS IgG1 (clone 2F12) as the primary detection antibody.
The effect on mucus secretion of a myristoylated peptide containing the first 24 amino acids of the human MARCKS protein (MANS; myristoylated N-terminal sequence; SEQ ID NO: ) was tested. Cultured normal human bronchial epithelial cells as described above were used. […]

NHBE cells [2] = assay: UTP-induced mucin secretion from NHBE cells (ELISA); format: cell-based, human; conditions: for activity at 100 µM: Homo sapiens, NHBE
Procedure: In Results-I-1D, NHBE cells were preincubated with the indicated inhibitor for 15 min and then stimulated with 100 μM UTP for 2 h. Secreted mucin in response to the treatment was collected and assayed by ELISA. Data are presented as mean±S.E. (n=6 at each point).
UTP is a well defined pathophysiologically relevant mucin secretagogue. Lethem ct al., Am. J. Respir. Cell Mol. Biol. 9, 315-322 (1993). […] To determine whether PKC and PKG were involved in regulation of mucin secretion in response to a pathophysiological stimulus, effects of PKC/PKG inhibitors on UTP-induced mucin secretion were investigated. NHBE cells were preincubated with various inhibitors for 15 min and then exposed to UTP (100 μM) plus the inhibitor for 2 h. The secreted mucin was measured by ELISA. […] Apparently, mucin secretion in NHBE cells may be regulated by a signaling mechanism involving both PKC and PKG.
Peptide Blocking Studies—NHBE cells were preincubated with either the MANS or the RNS peptide (1-100 μM) for 15 min, and then PMA (100 nM)+8-Br-cGMP (1 μM) or UTP (100 μM) was added, and cells were incubated for an additional 15 min or 2 h. respectively. Mucin secretion was measured by ELISA and experimental results are designated as Results-I-2B-1 and Results-I-2B-2, as follows.
PP2A is an essential component of the mucin secretory pathway. NHBE cells were preincubated with the indicated concentration of fostriecin, okadaic acid (500 nM), or medium alone for 15 min and then stimulated with PMA (100 nM)+8-Br-cGMP (1 μM) for 15 min or with UTP (100 μM) for 2 h. Secreted mucin was measured by ELISA. […] Thus, dephosphorylation of MARCKS by a PKG-activated PP2A appears to be an essential component of the signaling pathway leading to mucin granule exocytosis.
as §1
These experiments were carried out similarly to those described in Example 7. To test for stimulated secretion, the cells were exposed apically and basolaterally to uridine 5′-triphosphate (UTP) at a concentration of 0.1 mM in media. Cells were pre-incubated for 15 minutes with the MANS peptide and test cultures were then co-incubated with the MANS peptide and UTP for 45 minutes.
NHBE cells were pre-incubated with okadaic acid (500 nM) for 15 min at 37° C./5% CO2, then stimulated with PMA (100 nM)+8-Br-cGMP (1 μM) for 15 min, or with UTP (0.1 mM) for 2 hours. Secreted mucin in the apical medium was collected and assayed by ELISA. […]

human neutrophils = assay: Human neutrophil chemotactic migration assay; format: cell-based; conditions: test peptide 50 μM; fMLP 100 nM; 0 = inactive
Procedure: Human neutrophils were isolated from heparinized whole blood collected from healthy adult donors via cephalic venipuncture by a slightly modified method as described by Akasaki et al., 1999 (Akasaki T, Koga H, and Sumimoto H., Phosphoinositide 3-kinase-dependent and -independent activation of the small GTPase Rac2 in human neutrophils, J. Biol. Chem. 274:18055-18059, 1999). The blood was mixed with dextran (final concentration 1.4% dextran) and then allowed to settle for 60 minutes, after which time the leukocyte rich plasma was collected and layered onto 5 mL of Ficoll-Paque PLUS in 15 ml, conical tubes. The plasma was centrifuged at 1800 rpm for 20 minutes at room temperature. The residual erythrocytes were lysed utilizing a hypotonic saline and the remaining neutrophils were re-suspended in Hank's balanced salt solution containing 20 mM HEPES and 8.9 mM sodium bicarbonate without calcium or magnesium (HBSS), yielding neutrophils that were greater than 98% pure and greater than 99% viable.
Neutrophil migration assay was performed according to the method described by Frevert C W, Wong V A, Goodman R B, Goodwin R, and Martin T R., Rapid fluorescence-based measurement of neutrophil migration in vitro, J. Immunol. Methods, 213:41-52, 1998. Human neutrophils were labeled with the fluorescent dye calcein for 30 minutes at room temperature. Cells were then washed and resuspended in a migration buffer containing HBSS with 2% FCS. Cells were treated with buffer alone or with the indicated test peptide (50 μM) for 30 minutes at 37° C. Treated cells (1×10^4 cells) were then placed on the upper side of a ChemoTx® chemotaxis plate (Neuroprobe, Gaithersburg, Md.) membrane (2 μm pore size). Lower wells of the plate were filled with migration buffer alone or with buffer containing fMLP (100 nM), LTB4 (100 nM), or PAF (100 nM). Wells containing 1×10^4 labeled cells were used as standards to calculate migration percentage. Cells were allowed to migrate for 1 hour at 37° C. After incubation, cells on the top of the filter were washed away with PBS. Followed by this, 0.5 mM EDTA was added to the top of the filter for 5 min to detach adherent cells and the membrane was again washed. The plate was then centrifuged at 1000 rpm for 1 min. The filter was removed and the fluorescence was measured in the lower wells (485 nm excitation, 530 nm emission wavelength) using an fMax fluorescence plate reader (Molecular Devices, Sunnyvale, Calif.). Percent migration was determined by dividing the fluorescence of each well by the fluorescence of the standard wells containing 1×10^4 labeled cells. A lesser number of migrated neutrophils in the bottom compartment is indicative of the test peptide being an inhibitor of inflammation.

MARCKS = MARCKS phosphorylation in NHBE cells (radiolabeled immunoprecipitation assay); format: cell-based, human
Procedure: NHBE cells were labeled with [^32 P]orthophosphate and then exposed to the reagents: (a) Rp-8-Br-PET-cGMP (100 μM); (b) okadaic acid (500 nM); (c) 8-Br-cGMP (1 μM); and (d) PMA (100 nM). MARCKS phosphorylation in response to the treatments was evaluated by immunoprecipitation assay.
To reveal molecular events by which MARCKS links kinase activation to mucin secretion, phosphorylation of MARCKS in response to PKC/PKG activation was investigated in depth, and results are presented as Results-I-4A. […] Once phosphorylated, MARCKS was translocated from the plasma membrane to the cytoplasm. More specifically, the activation of PKC results in MARCKS phosphorylation in NHBE cells. Cells were labeled with [^32 P]orthophosphate for 2 h and then exposed to the stimulatory and/or inhibitory reagents (see below). MARCKS phosphorylation in response to the treatments was evaluated by immunoprecipitation with the following specifics, designated Results-I-4A:
[^32P]phosphate, cells were preincubated for 2 h in phosphate-free Dulbecco's modified Eagle's medium containing 0.2% bovine serum albumin and then labeled with 0.1 mCi/ml [^32 P]orthophosphate (9000 Ci/mmol, PerkinElmer Life Sciences) for 2 h. For labeling with [^3H]myristic acid or ^3H-amino acids, cells were incubated overnight in medium containing 50 μCi/ml [^3H]myristic acid (49 Ci/mmol, PerkinElmer Life Sciences) or 0.2 mCi/ml [^3H]leucine (159 Ci/mmol, PerkinElmer Life Sciences) plus 0.4 mCi/ml [^3H]proline (100 Ci/mmol, PerkinElmer Life Sciences). Following labeling, cells were exposed to stimulatory reagents for 5 min. When an inhibitor was used, cells were preincubated with the inhibitor for 15 min prior to stimulation. At the end of the treatments, cells were lysed in a buffer containing 50 mM Tris-HCl (pH 7.5), 150 mM NaCl, 1 mM EDTA, 10% glycerol, 1% Nonidet P-40, 1 mM phenylmethylsulfonyl fluoride, 1 mM benzamidine, 10 μg/ml pepstatin A, and 10 μg/ml leupeptin. Trichloroacetic acid precipitation and scintillation counting may determine the radiolabeling efficiency in each culture. Immunoprecipitation of MARCKS protein was carried out according to the method of Spizz and Blackshear using cell lysates containing equal counts/min. Spizz et al., J. Biol. Chem. 271, 553-562 (1996). Precipitated proteins were resolved by 8% SDS-polyacrylamide gel electrophoresis and visualized by autoradiography. Anti-human MARCKS antibody (2F12) and nonimmune control antibody (6F6) were used in this assay.
Phosphorylation of MARCKS by PMA was attenuated by Calphostin C (500 nM). NHBE cells also contained substantial amounts of cGMP-dependent protein kinase type 1α (PKG-1α) activity, which was localized to the cytosolic fraction. […] In addition, the phosphorylation of MARCKS induced by PMA was reversed by incubation with 8-Br-cGMP (10 μM).

[3] = inhibitor 500 nM, 15 min preincubation, then UTP 100 μM 2 h

Compound: CCCCCCOC(=O)[C@]1(O)C[C@@H]2O[C@@]1(C)n1c3ccccc3c3c4c(c5c6ccccc6n2c5c31)C(=O)NC4 [KT5720]
- Mucin secretion as % of control (NHBE cells [1]): did not affect
- Mucin secretion as percent of control (NHBE cells [2]; [3]): 157% and 160%

Compound: O=C1C(Nc2ccccc2)=CC(=O)c2ncccc21 [LY83583]
- Mucin secretion as percent of control (NHBE cells [2]; inhibitor 50 μM, 15 min preincubation, then UTP 100 μM 2 h): 111% and 112%

Compound: CCCCCCCCCCCCCC(=O)NCC(=O)N[C@@H](C)C(=O)N[C@@H](CCC(N)=O)C(=O)N[C@@H](Cc1ccccc1)C(=O)N[C@@H](CO)C(=O)N[C@@H](CCCCN)C(=O)N[C@H](C(=O)N[C@@H](C)C(=O)O)[C@@H](C)O [SEQ ID NO: 17, N-myristoyl-GAQFSKTA] (Myristoyl-GAQFSKTA-OH; C-terminus assumed)
- Neutrophil Migration (% Inhibition), fMLP (human neutrophils): 92.2%

Compound: O=c1ccn([C@@H]2O[C@H](COP(=O)(O)OP(=O)(O)OP(=O)(O)O)[C@@H](O)[C@H]2O)c(=O)[nH]1 [UTP, uridine 5′-triphosphate]
- activity at 100 µM (NHBE cells [2]; 0.75 h, 0.1 mM UTP 45 min, no peptide (Results-M-2), read-out: Mucin secretion, % of control levels): 159%
- activity at 100 µM (NHBE cells [2]; 2 h, UTP 100 μM (0.1 mM) 2 h, no inhibitor, read-out: Mucin secretion as percent of control): 159%
- Mucin secretion as percent of control (NHBE cells [2]; UTP 100 μM (0.1 mM) 2 h, no inhibitor): 156% and 161% and 152%

Compound: Calphostin C
- Mucin secretion as percent of control (NHBE cells [2]; [3]): 120%
- Mucin secretion as percent of control (NHBE cells [2]; inhibitor 500 nM, 15 min preincubation, then UTP 100 μM 2 h, listed as calphostin C): 121%
- MARCKS phosphorylation (band in immunoprecipitation assay) (MARCKS; inhibitor 500 nM + 100 nM PMA): attenuated
- MARCKS phosphorylation (band in immunoprecipitation assay) (MARCKS; inhibitor 500 nM alone): dark band
